From patent publication US5470879A, “Treatment of non-insulin-dependent diabetes” (Laboratories Monal, priority 1992, dated 1995)
Like-named read-outs stand apart in the source and are kept apart here.

Key:
[1] = Intravenous glucose tolerance test (IVGTT) in anaesthetized normal rats fed ad libitum; format: in vivo
Experimental: (§1) Blood sugar level was assayed using a Technicon autoanalyzer by the potassium ferricyanide method.
(§2) During this experiment, Wistar rats were anaesthetized and then provided with catheters in both jugular veins. One catheter enables blood samples needed for the assay of plasma glucose and plasma insulin to be taken, the other catheter is used for the intravenous injection of the test substance.
Still in anaesthetized normal rats previously fed ad libitum, an intravenous glucose tolerance test was carried out.
Dissolved glucose was administered intravenously at a dose of 0.3 g/kg in one of the two jugular veins of the rat. […] In FIG. 3, "o" indicates the values observed when administering glucose alone, while ".cndot." indicates the values observed during the administration of glucose plus 4-hydroxyisoleucine.

[2] = Orally induced hyperglycaemia (OGTT) in fasted conscious normal dogs; format: in vivo
Experimental: as §1
(§3) Using conscious normal dogs kept fasted for 18 hours, 4-hydroxyisoleucine is dissolved in physiological saline and administered by gastric intubation at a dose of 9 mg/kg.
Dissolved glucose was administered by gastric intubation at a dose of 1 g/kg.
In FIG. 5, "o" represents values observed upon administering glucose alone; ".cndot." represents values observed in a trial in which glucose plus 4-hydroxyisoleucine is administered. The arrow toward the top of FIG. 5 represents the point of administration of the glucose or glucose plus 4-hydroxyisoleucine. When 4-hydroxyisoleucine (9 mg/kg) is added to the glucose solution administered by gastric intubation, the blood sugar level reaches only 120 mg/dl at the 30th minute, i.e. only +31%.

[3] = Acute intraperitoneal toxicity in Swiss mice; format: in vivo
Experimental: The acute toxicity was determined in Swiss mice of both sexes on intraperitoneal administration of a single dose of 1 gram per kilo of 4-hydroxyisoleucine. […] The LDo (zero lethal dose) is greater than 1 gram per kilo under our experimental conditions.

[4] = Gastric intubation in fasted conscious normal dogs: blood insulin and sugar levels; format: in vivo; details: 9 mg/kg by gastric intubation
Experimental: (§4) In these examples, the pancreatic hormones (insulin and glucagon) were evaluated by radioimmunoassays.
as §1
During a complementary experiment in dogs, we investigated whether 4-hydroxyisoleucine can be active after oral administration, and whether, in this case, this substance retains its insulin-secreting property and consequently its capacity to improve glucose tolerance.
as §3
Blood samples drawn from one of the two jugular veins enabled the blood insulin and sugar levels of these animals to be evaluated. […] The arrows near the top of FIGS. 4A and 4B represent the approximate time of administration of the 4-hydroxyisoleucine.

[5] = system: isolated and perfused rat pancreas; experiment: Isolated and perfused rat pancreas: insulin secretion, vascular flow, glucagon (8.3 mM glucose); details: for Insulin secretion: glucose alone 810 ± 83
Experimental: as §4
To carry out this test, the pancreas was completely isolated from all the other neighbouring organs and tissues (spleen, stomach, duodenum, epiploic fat) and perfused in an open circuit with a physiological solution in a perfusion chamber. This preparation has the advantage of preserving the functional and vascular integrity of the organ while depriving it of the regulatory influences (humoral or nervous) to which it is normally subjected.
In this example, the experiments were carried out in the presence of an 8.3 mM concentration of glucose. Under these conditions, the effect on insulin secretion of a perfusion of 4-hydroxyisoleucine at a concentration of 200 μM for 10 minutes was studied. […] The perfusion of the 4-hydroxyisoleucine is indicated by the rectangular box with the lines extending downwardly from opposite sides of the box, near the top of the Figure.
The amounts of insulin secreted during the 10 minutes of perfusion are shown below: […]

[6] = system: isolated islets of Langerhans of rat pancreas; experiment: Insulin secretion of isolated islets of Langerhans of rat pancreas (8.3 mM glucose, 1 hour); format: cell-based, Wistar rats
Experimental: as §4
This method, which has the advantage of necessitating only a small amount of substance, permits a direct study of the effects of the composition on pancreatic endocrine cells, especially insulin-secreting B cells, to the exclusion of any interference with the exocrine and related tissues.
The effect of different concentrations of 4-hydroxyisoleucine on insulin secretion was investigated on isolated islets of Wistar rats, incubated in the presence of 8.3 mM glucose (1.5 g/l) for 1 hour. The results obtained are recorded in FIG. 1, in which the histograms represent the insulin secretion measured over 60 minutes for each dose of 4-hydroxyisoleucine.
By way of comparison, the effects of two structural analogues of 4-hydroxyisoleucine, i.e. isoleucine and leucine, were observed under the same conditions, and it could be established that, with these two substances, the stimulatory effect on insulin secretion is apparent only with concentrations 50 to 100 times as high.

[7] = format: in vivo, Wistar rats
Experimental: as §4, §1
The results were subjected to a variance analysis followed by the multiple comparison test.
as §2

[8] = 9 mg/kg I.V., -2 min (before injection)
[9] = 9 mg/kg I.V., -10 min (before injection)
[10] = 9 mg/kg I.V., -15 min (before injection)

**Q.** Which “effect on induced hyperglycaemia” value ([1]; 9 mg/kg I.V. with glucose 0.3 g/kg I.V.) does the source give for `C[C@@H]([C@H](C)O)[C@H](N)C(=O)O` [4-hydroxyisoleucine] here?
**A.** markedly reduced

**Q.** And the Blood sugar level ([1]; 9 mg/kg I.V. with glucose 0.3 g/kg I.V., 3rd minute, glucose alone 282 mg/dl)?
**A.** 204 mg/dL

**Q.** What about the “change in blood sugar level” value ([1]; 9 mg/kg I.V. with glucose 0.3 g/kg I.V., 3rd minute, glucose alone +112%) of the same compound?
**A.** +58%

**Q.** What about the glucose tolerance ([1]; rat, intravenously, summary statement) of the same compound?
**A.** improves glucose tolerance

**Q.** What about the Blood sugar level ([2]; 9 mg/kg intragastric with glucose 1 g/kg, 30th minute, glucose alone 166 mg/dl) of the same compound?
**A.** 120 mg/dL

**Q.** And the “change in blood sugar level” value ([2]; 9 mg/kg intragastric with glucose 1 g/kg, 30th minute, glucose alone +85%)?
**A.** +31%

**Q.** What about the glucose tolerance ([2]; dog, orally, summary statement) of the same compound?
**A.** improves glucose tolerance

**Q.** What about the “macroscopic deleterious effect on the main organs at autopsy” value ([3]; 1 gram per kilo intraperitoneal, thymus, heart, lungs, liver, stomach, kidneys, adrenals, pancreas, duodenum, genital tract, bladder) of the same compound?
**A.** does not appear to disclose any macroscopic deleterious effect

**Q.** And the “LDo (zero lethal dose)” value ([3]; intraperitoneal, single dose)?
**A.** greater than 1 gram per kilo

**Q.** What about the “toxic phenomenon over 15 days” value ([3]; single dose 1 gram per kilo intraperitoneal) of the same compound?
**A.** does not appear to detect any toxic phenomenon

**Q.** And the duration of hyperinsulinaemia ([4]; fasted)?
**A.** 5 min

**Q.** And the “effect on blood sugar level” value ([4]; fasted)?
**A.** gradual and discrete reduction in blood sugar level

**Q.** What about the “rise in blood insulin level” value ([4]; from the 3rd minute) of the same compound?
**A.** +277%

**Q.** What about the Insulin secretion ([5]; 50 μM) of the same compound?
**A.** 1232 ± 93 ng/10 min

**Q.** What about the Insulin secretion ([5]; 200 μM) of the same compound?
**A.** 1520 ± 154 ng/10 min

**Q.** What about the “effect on insulin secretion (time course)” value ([5]; 200 μM, perfusion for 10 minutes) of the same compound?
**A.** stimulation is immediate and in two phases, and persists throughout the period of the perfusion

**Q.** What about the Insulin secretion ([5]; 500 μM) of the same compound?
**A.** 2206 ± 213 ng/10 min

**Q.** What about the “concentration dependence of stimulatory effect on insulin secretion” value ([5]; 50 to 500 μM) of the same compound?
**A.** stimulatory effect increases with the 4-hydroxyisoleucine concentration

**Q.** And the “pancreatic vascular flow and level of pancreatic glucagon” value ([5]; during perfusion)?
**A.** no modification

**Q.** And the minimal effective concentration ([6]; Rattus norvegicus, 1 h, read-out: concentration at which a stimulatory effect on insulin secretion is apparent)?
**A.** 200 µM

**Q.** What about the “dose dependence of stimulation of insulin secretion” value ([6]; isolated rat islets, 8.3 mM glucose) of the same compound?
**A.** increases slightly with the dose

**Q.** And the “mode of stimulation of insulin secretion” value ([6]; summary of "in vitro" tests)?
**A.** direct effect on the B cell of the islet of Langerhans

**Q.** What about the “effect on plasma insulin level” value ([7]; 9 mg/kg I.V.) of the same compound?
**A.** immediate and particularly important increase

**Q.** What about the “time after injection at which reduction in circulating glucose level becomes significant” value ([7]; 9 mg/kg I.V.) of the same compound?
**A.** 15 min

**Q.** And the Blood sugar level ([7]; 9 mg/kg I.V., 2 min)?
**A.** 1.26 ± 0.08 g/L

**Q.** What about the Plasma insulin ([7]; 9 mg/kg I.V., 2 min) of the same compound?
**A.** 4.4 ± 1.1 ng/mL

**Q.** And the Blood sugar level ([7]; 9 mg/kg I.V., 5 min)?
**A.** 1.18 ± 0.04 g/L

**Q.** What about the Plasma insulin ([7]; 9 mg/kg I.V., 5 min) of the same compound?
**A.** 9.1 ± 1.0 ng/mL

**Q.** What about the Blood sugar level ([7]; 9 mg/kg I.V., 15 min) of the same compound?
**A.** 0.94 ± 0.09 g/L

**Q.** And the Plasma insulin ([7]; 9 mg/kg I.V., 15 min)?
**A.** 18.5 ± 1.5 ng/mL

**Q.** What about the Blood sugar level ([7]; 9 mg/kg I.V., 30 min) of the same compound?
**A.** 0.99 ± 0.10 g/L

**Q.** And the Plasma insulin ([7]; 9 mg/kg I.V., 30 min)?
**A.** 18.6 ± 1.5 ng/mL

**Q.** And the Blood sugar level ([7]; 9 mg/kg I.V., 45 min)?
**A.** 0.99 ± 0.12 g/L

**Q.** What about the Plasma insulin ([7]; 9 mg/kg I.V., 45 min) of the same compound?
**A.** 14.5 ± 4.8 ng/mL

**Q.** What about the Blood sugar level ([7]; 9 mg/kg I.V., 60 min) of the same compound?
**A.** 0.94 ± 0.10 g/L

**Q.** What about the Plasma insulin ([7]; 9 mg/kg I.V., 60 min) of the same compound?
**A.** 14.4 ± 4.8 ng/mL

**Q.** What about the Blood sugar level ([7]; 9 mg/kg I.V., 90 min) of the same compound?
**A.** 0.89 ± 0.12 g/L

**Q.** And the Plasma insulin ([7]; 9 mg/kg I.V., 90 min)?
**A.** 14.9 ± 5.2 ng/mL

**Q.** And the Blood sugar level [7, 8]?
**A.** 1.34 ± 0.07 g/L

**Q.** And the Plasma insulin [7, 8]?
**A.** 3.4 ± 1.1 ng/mL

**Q.** And the Blood sugar level [7, 9]?
**A.** 1.38 ± 0.09 g/L

**Q.** And the Plasma insulin [7, 9]?
**A.** 2.4 ± 0.1 ng/mL

**Q.** What about the Blood sugar level [7, 10] of the same compound?
**A.** 1.32 ± 0.09 g/L

**Q.** What about the Plasma insulin [7, 10] of the same compound?
**A.** 2.8 ± 0.2 ng/mL

**Q.** And the “reduction in circulating glucose level relative to the starting value” ([7]; 9 mg/kg I.V., at the 90th minute)?
**A.** approximately 30%

**Q.** And the “side effect secondary to the injection (polypnea, tachycardia, hypoxia)” value ([7]; I.V. injection, anaesthetized rats)?
**A.** no side effect
